Source: US20150105252A1, “SUBSTITUTED PYRAZOLES AS HERBICIDES” (E I DU PONT DE NEMOURS AND COMPANY, priority 2013, published 2015)

Key:
foxtail, giant [1] = assay: Test A postemergence; assay type: in vivo, Setaria faberii
Summary of the method: (§1)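 Seeds were sown in a loam soil–sand blend and given a directed soil spray preemergence; postemergence plants at 2–10 cm, one- to two-leaf stage, were sprayed with compound in non-phytotoxic solvent with surfactant. After about 10 days in a greenhouse, injury was visually rated against untreated controls (0 = no effect, 100 = complete control).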

morningglory [2] = assay: Test A preemergence; assay type: in vivo, Ipomoea spp.; settings: preemergence; for Morningglory plant response rating (0 to 100 scale): 125 g ai/ha, visual injury approx. 10 days after treatment
Summary of the method: as §1

pigweed [3] = assay: Test A preemergence; assay type: in vivo, Amaranthus retroflexus; settings: preemergence; for Pigweed plant response rating (0 to 100 scale): 125 g ai/ha, visual injury approx. 10 days after treatment
Summary of the method: as §1

corn [4] = assay: Test A postemergence; assay type: in vivo, Zea mays
Summary of the method: as §1

barnyardgrass [5] = assay: Test A postemergence; assay type: in vivo, Echinochloa crus-galli
Summary of the method: as §1

ducksalad [6] = assay: Test B flood; assay type: in vivo, Heteranthera limosa; settings: 250 g ai/ha, visual rating on 0 to 100 scale (0 no effect, 100 complete control), 13 to 15 days
Summary of the method: (§2)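 Response scored visually, 0–100 relative to controls, 13–15 days after the compound was applied into paddy water; plants were at the 2-leaf stage in pots kept flooded to 3 cm.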

barnyardgrass [7] = assay: Test C flooded paddy test; assay type: in vivo, Echinochloa crus-galli; settings: Flood
Summary of the method: (§3)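 Compound was added to standing water 3 cm above soil, flood maintained, and plants held in a greenhouse before visual scoring against controls at 13 to 15 days.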

corn [8] = assay: Test A preemergence; assay type: in vivo, Zea mays; settings: preemergence; for Corn plant response rating (0 to 100 scale): 125 g ai/ha, visual injury approx. 10 days after treatment; for Corn plant response rating: 500 g ai/ha, visual injury after approx. 10 days, 0 to 100 scale (0 no effect, 100 complete control)
Summary of the method: as §1

crabgrass, large [9] = assay: Test A postemergence; assay type: in vivo, Digitaria sanguinalis
Summary of the method: as §1

wheat [10] = assay: Test A postemergence; assay type: in vivo, Triticum aestivum
Summary of the method: as §1

barnyardgrass [11] = assay: Test B flood; assay type: in vivo, Echinochloa crus-galli; settings: 250 g ai/ha, visual rating on 0 to 100 scale (0 no effect, 100 complete control), 13 to 15 days
Summary of the method: as §2

ducksalad [12] = assay: Test C flooded paddy test; assay type: in vivo, Heteranthera limosa; settings: Flood
Summary of the method: as §3

pigweed [13] = assay: Test A postemergence; assay type: in vivo, Amaranthus retroflexus
Summary of the method: as §1

rice [14] = assay: Test C flooded paddy test; assay type: in vivo, Oryza sativa; settings: Flood
Summary of the method: as §3

velvetleaf [15] = assay: Test A postemergence; assay type: in vivo, Abutilon theophrasti
Summary of the method: as §1

foxtail, giant [16] = assay: Test A preemergence; assay type: in vivo, Setaria faberii; settings: preemergence; for Foxtail, Giant plant response rating (0 to 100 scale): 125 g ai/ha, visual injury approx. 10 days after treatment; for Foxtail, Giant plant response rating: 500 g ai/ha, visual injury after approx. 10 days, 0 to 100 scale (0 no effect, 100 complete control)
Summary of the method: as §1

morningglory [17] = assay: Test A postemergence; assay type: in vivo, Ipomoea spp.
Summary of the method: as §1

sedge, umbrella [18] = assay: Test B flood; assay type: in vivo, Cyperus difformis; settings: 250 g ai/ha, visual rating on 0 to 100 scale (0 no effect, 100 complete control), 13 to 15 days
Summary of the method: as §2

crabgrass, large [19] = assay: Test A preemergence; assay type: in vivo, Digitaria sanguinalis; settings: preemergence; for Crabgrass, Large plant response rating (0 to 100 scale): 125 g ai/ha, visual injury approx. 10 days after treatment; for Crabgrass, Large plant response rating: 500 g ai/ha, visual injury after approx. 10 days, 0 to 100 scale (0 no effect, 100 complete control)
Summary of the method: as §1

velvetleaf [20] = assay: Test A preemergence; assay type: in vivo, Abutilon theophrasti; settings: preemergence; for Velvetleaf plant response rating (0 to 100 scale): 125 g ai/ha, visual injury approx. 10 days after treatment
Summary of the method: as §1

barnyardgrass [21] = assay: Test A preemergence; assay type: in vivo, Echinochloa crus-galli; settings: preemergence
Summary of the method: as §1

rice [22] = assay: Test B flood; assay type: in vivo, Oryza sativa; settings: 250 g ai/ha, visual rating on 0 to 100 scale (0 no effect, 100 complete control), 13 to 15 days
Summary of the method: as §2

sedge, umbrella [23] = assay: Test C flooded paddy test; assay type: in vivo, Cyperus difformis; settings: Flood
Summary of the method: as §3

wheat [24] = assay: Test A preemergence; assay type: in vivo, Triticum aestivum; settings: preemergence; for Wheat plant response rating (0 to 100 scale): 125 g ai/ha, visual injury approx. 10 days after treatment
Summary of the method: as §1

[25] = Postemergence, 500 g ai/ha, 0 to 100 scale (0 no effect, 100 complete control)
[26] = postemergence, 125 g ai/ha, about 10 days, visual rating on 0 to 100 scale (0 no effect, 100 complete control)
[27] = 500 g ai/ha, visual injury after approx. 10 days, 0 to 100 scale (0 no effect, 100 complete control)
[28] = 31 g ai/ha, scale 0 to 100 (0 no effect, 100 complete control)
[29] = 62 g ai/ha, scale 0 to 100 (0 no effect, 100 complete control)
[30] = 125 g ai/ha, scale 0 to 100 (0 no effect, 100 complete control)
[31] = Postemergence, 125 g ai/ha, 0 to 100 scale, 0 no effect, 100 complete control

Structure (SMILES): CCc1cc(C(=O)NC(C)C)nn1Cc1ccnc(OCC(F)(F)F)c1 [Compound 149]
- Foxtail, Giant plant response rating (foxtail, giant [1]; [25]): 80
- Foxtail, Giant plant response rating (foxtail, giant [1]; [26]): 70
- Morningglory plant response rating (0 to 100 scale) (morningglory [2]): 10
- Morningglory plant response rating (morningglory [2]; [27]): 100
- Pigweed plant response rating (0 to 100 scale) (pigweed [3]): 80
- Pigweed plant response rating (pigweed [3]; [27]): 100
- Corn plant response rating (corn [4]; [25]): 80
- Corn plant response rating (corn [4]; [26]): 40
- Barnyardgrass plant response rating (barnyardgrass [5]; [25]): 80
- Barnyardgrass plant response rating (barnyardgrass [5]; [26]): 30
- Plant response rating, Ducksalad (ducksalad [6]): 95
- Plant response rating, Barnyardgrass (barnyardgrass [7]; [28]): 0
- Plant response rating, Barnyardgrass (barnyardgrass [7]; [29]): 0
- Plant response rating, Barnyardgrass (barnyardgrass [7]; 125 g ai/ha, scale 0 to 100): 0
- Corn plant response rating (0 to 100 scale) (corn [8]): 0
- Corn plant response rating (corn [8]): 30
- Crabgrass, Large plant response rating (crabgrass, large [9]; [25]): 90
- Crabgrass, Large plant response rating (crabgrass, large [9]; [26]): 40
- Wheat plant response rating (wheat [10]; [25]): 60
- Wheat plant response rating (wheat [10]; [26]): 20
- Plant response rating, Barnyardgrass (barnyardgrass [11]): 30
- Plant response rating, Ducksalad (ducksalad [12]; [28]): 0
- Plant response rating, Ducksalad (ducksalad [12]; [29]): 55
- Plant response rating, Ducksalad (ducksalad [12]; 125 g ai/ha, scale 0 to 100): 70
- Pigweed plant response rating (pigweed [13]; [25]): 100
- Pigweed plant response rating (pigweed [13]; [26]): 90
- Plant response rating, Rice (rice [14]; [28]): 0
- Plant response rating, Rice (rice [14]; [29]): 0
- Plant response rating, Rice (rice [14]; 125 g ai/ha, scale 0 to 100): 0
- Velvetleaf plant response rating (velvetleaf [15]; [25]): 90
- Velvetleaf plant response rating (velvetleaf [15]; [26]): 30
- Foxtail, Giant plant response rating (0 to 100 scale) (foxtail, giant [16]): 70
- Foxtail, Giant plant response rating (foxtail, giant [16]): 100
- Morningglory plant response rating (morningglory [17]; [25]): 100
- Morningglory plant response rating (morningglory [17]; [26]): 60
- Plant response rating, Sedge, Umbrella (sedge, umbrella [18]): 95
- Crabgrass, Large plant response rating (0 to 100 scale) (crabgrass, large [19]): 100
- Crabgrass, Large plant response rating (crabgrass, large [19]): 100
- Velvetleaf plant response rating (0 to 100 scale) (velvetleaf [20]): 20
- Velvetleaf plant response rating (velvetleaf [20]; [27]): 90
- Barnyardgrass plant response rating (barnyardgrass [21]; 125 g ai/ha, visual injury, 0 to 100 scale, approx. 10 days): 10
- Barnyardgrass plant response rating (barnyardgrass [21]; [27]): 60
- Plant response rating, Rice (rice [22]): 10
- Plant response rating, Sedge, Umbrella (sedge, umbrella [23]; [28]): 60
- Plant response rating, Sedge, Umbrella (sedge, umbrella [23]; [29]): 70
- Plant response rating, Sedge, Umbrella (sedge, umbrella [23]; 125 g ai/ha, scale 0 to 100): 80
- Wheat plant response rating (0 to 100 scale) (wheat [24]): 0
- Wheat plant response rating (wheat [24]; [27]): 50

Structure (SMILES): CCc1cc(C(=O)NC)nn1Cc1ccnc(C(F)(F)F)c1 [Compound 204]
- Foxtail, Giant plant response rating (foxtail, giant [1]; [25]): 70
- Foxtail, Giant plant response rating (foxtail, giant [1]; [26]): 10
- Morningglory plant response rating (0 to 100 scale) (morningglory [2]): 30
- Pigweed plant response rating (0 to 100 scale) (pigweed [3]): 100
- Corn plant response rating (corn [4]; [25]): 30
- Corn plant response rating (corn [4]; [26]): 10
- Barnyardgrass plant response rating (barnyardgrass [5]; [25]): 50
- Barnyardgrass plant response rating (barnyardgrass [5]; [26]): 10
- Plant response rating, Ducksalad (ducksalad [6]): 95
- Plant response rating, Barnyardgrass (barnyardgrass [7]; [28]): 0
- Plant response rating, Barnyardgrass (barnyardgrass [7]; [29]): 0
- Plant response rating, Barnyardgrass (barnyardgrass [7]; [30]): 0
- Plant response rating, Barnyardgrass (barnyardgrass [7]; 250 g ai/ha, scale 0 to 100): 0
- Corn plant response rating (0 to 100 scale) (corn [8]): 0
- Corn plant response rating (corn [8]): 10
- Crabgrass, Large plant response rating (crabgrass, large [9]; [25]): 80
- Crabgrass, Large plant response rating (crabgrass, large [9]; [26]): 10
- Wheat plant response rating (wheat [10]; [31]): 0
- Wheat plant response rating (wheat [10]; [25]): 10
- Plant response rating, Barnyardgrass (barnyardgrass [11]): 0
- Plant response rating, Ducksalad (ducksalad [12]; [28]): 0
- Plant response rating, Ducksalad (ducksalad [12]; [29]): 0
- Plant response rating, Ducksalad (ducksalad [12]; [30]): 50
- Plant response rating, Ducksalad (ducksalad [12]; 250 g ai/ha, scale 0 to 100): 90
- Pigweed plant response rating (pigweed [13]; [31]): 90
- Pigweed plant response rating (pigweed [13]; [25]): 90
- Plant response rating, Rice (rice [14]; [28]): 0
- Plant response rating, Rice (rice [14]; [29]): 0
- Plant response rating, Rice (rice [14]; [30]): 0
- Plant response rating, Rice (rice [14]; 250 g ai/ha, scale 0 to 100): 0
- Velvetleaf plant response rating (velvetleaf [15]; [31]): 40
- Velvetleaf plant response rating (velvetleaf [15]; [25]): 50
- Foxtail, Giant plant response rating (0 to 100 scale) (foxtail, giant [16]): 50
- Foxtail, Giant plant response rating (foxtail, giant [16]): 100
- Morningglory plant response rating (morningglory [17]; [31]): 80
- Morningglory plant response rating (morningglory [17]; [25]): 90
- Plant response rating, Sedge, Umbrella (sedge, umbrella [18]): 90
- Crabgrass, Large plant response rating (0 to 100 scale) (crabgrass, large [19]): 100
- Crabgrass, Large plant response rating (crabgrass, large [19]): 100
- Velvetleaf plant response rating (0 to 100 scale) (velvetleaf [20]): 10
- Barnyardgrass plant response rating (0 to 100 scale, 0 is no effect, 100 is complete control) (barnyardgrass [21]; 125 g ai/ha, visual injury approx. 10 days after treatment): 0
- Barnyardgrass plant response rating (barnyardgrass [21]; [27]): 80
- Plant response rating, Rice (rice [22]): 0
- Plant response rating, Sedge, Umbrella (sedge, umbrella [23]; [28]): 0
- Plant response rating, Sedge, Umbrella (sedge, umbrella [23]; [29]): 60
- Plant response rating, Sedge, Umbrella (sedge, umbrella [23]; [30]): 80
- Plant response rating, Sedge, Umbrella (sedge, umbrella [23]; 250 g ai/ha, scale 0 to 100): 80
- Wheat plant response rating (0 to 100 scale) (wheat [24]): 0
